pIC50: −log10 of the molar value. Calls of active or inactive are those of the source. The rule behind the calls is not given here.

Test [1] is described as follows: Displacement of [3H]leucine from Aquifex aeolicus His-LeuT expressed in Escherichia coli by scintillation proximity assay.
The test system of test [2] is Aquifex aeolicus. The experiment in a line: Inhibition of [3H]leucine transport activity of LeuT in proteoliposomes by scintillation proximity assay.

Turning to `CNCCCN1c2ccccc2CCc2ccccc21` [DESIPRAMINE], in test [1], the pIC50 was 4.10. The result in test [2] was Active.
With `CNCCC(Oc1ccc(C(F)(F)F)cc1)c1ccccc1` (stereo not given) [FLUOXETINE], in test [1], the pIC50 is 3.07.
On the same count and under the same terms, for `CN(C)CCCN1c2ccccc2CCc2ccccc21` [IMIPRAMINE] the value was 3.61.
Same read-out and setting: the value for `CNCCC=C1c2ccccc2CCc2ccccc21` [NORTRIPTYLINE] was 4.12.

For orientation: pIC50 means the negative decadic logarithm of the IC50, by convention in mol/L.

The values are drawn from ChEMBL document CHEMBL1143765 (Science, 2007).
